The source of these data is patent US20240261333A1, “NOVEL TARGETS FOR ENHANCING ANTI-TUMOR IMMUNITY” (THE BROAD INSTITUTE, INC., priority 2021, published 2024).

Data set [1] addresses T1, human endoplasmic reticulum a-1,2-mannosidase I (Homo sapiens, UniProt Q9UKM7).
T1 sequence (Q9UKM7 1-699): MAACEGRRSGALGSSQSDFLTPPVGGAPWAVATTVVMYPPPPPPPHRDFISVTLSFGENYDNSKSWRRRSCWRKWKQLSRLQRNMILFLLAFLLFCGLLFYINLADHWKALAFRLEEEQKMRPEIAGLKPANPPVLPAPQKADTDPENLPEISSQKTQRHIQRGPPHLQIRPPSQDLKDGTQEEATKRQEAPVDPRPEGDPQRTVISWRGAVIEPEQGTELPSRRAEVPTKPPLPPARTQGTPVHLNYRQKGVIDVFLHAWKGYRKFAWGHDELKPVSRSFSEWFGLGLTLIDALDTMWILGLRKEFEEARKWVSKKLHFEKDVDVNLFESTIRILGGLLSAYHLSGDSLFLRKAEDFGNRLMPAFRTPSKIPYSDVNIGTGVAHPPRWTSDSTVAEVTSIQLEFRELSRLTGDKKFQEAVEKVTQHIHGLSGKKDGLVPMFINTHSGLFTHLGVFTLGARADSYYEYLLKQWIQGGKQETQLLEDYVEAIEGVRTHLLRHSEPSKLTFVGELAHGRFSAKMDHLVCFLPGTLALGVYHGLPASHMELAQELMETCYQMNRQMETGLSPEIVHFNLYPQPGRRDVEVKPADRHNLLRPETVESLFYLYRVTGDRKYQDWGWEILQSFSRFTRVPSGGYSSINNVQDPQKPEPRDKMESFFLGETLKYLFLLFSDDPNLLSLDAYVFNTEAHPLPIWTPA
The settings on record: human enzyme; cited from earlier work.

For data set [2], the target named is Golgi Class I mannosidases IA, IB and IC. As to conditions: cited from earlier work.
Data set [3] concerns SW1417 (HER2+) colorectal adenocarcinoma cells. The data set is described as follows: T cell cytotoxicity assay, SW1417 against HER2 CAR T cells. Type of data set: cell-based, human. As to conditions: SW1417 treated with small molecule inhibitor. On the procedure:
(§1) Expanded T cells were thawed and maintained in culture media for 8-10 h before incubation with cancer cells. Cancer cells were seeded in 96-well plates and allowed to attach for 3-4 h before T cells were added at the appropriate effector to target cell (E:T) ratio. Paired controls with no T cells added were included for each condition. After 18 h, cancer cells were washed twice with PBS to remove T cells, passaged, and cultured for 2 days. Primary patient-derived cell models were not passaged after T cell co-culture. Viability was measured using CellTiter-Glo (Promega G7571). For each E:T ratio, percent survival was calculated as viability of the cells incubated with T cells divided by viability of the paired control that was not incubated with T cells. For example, CD274-overexpressing melanoma cells that were co-cultured with ESO T cells were compared to CD274-overexpressing melanoma cells that were cultured without T cells in parallel. As an alternative cytotoxicity assay, A375 cells stably expressing Gaussia luciferase were co-cultured with ESO T cells. At each time point, 10% of cell culture media was used for the Gaussia luciferase assay (Targeting Systems GAR-2B) to directly measure cytotoxicity. […]

Data set [4] concerns ESO T cells co-cultured with A375 cells. Description: IFNγ ELISA in culture media of the T cell cytotoxicity assay. Format: cell-based, human. As to conditions: B3GNT2-overexpressing A375 pretreated with inhibitor, E:T ratio of 3; kifunensine having a stronger effect. On the procedure:
Expanded T cells were thawed and maintained in culture media for 8-10 h before incubation with cancer cells. Cancer cells were seeded in 96-well plates and allowed to attach for 3-4 h before T cells were added at the appropriate effector to target cell (E:T) ratio. Paired controls with no T cells added were included for each condition. After 18 h, cancer cells were washed twice with PBS to remove T cells, passaged, and cultured for 2 days. Primary patient-derived cell models were not passaged after T cell co-culture. Viability was measured using CellTiter-Glo (Promega G7571). For each E:T ratio, percent survival was calculated as viability of the cells incubated with T cells divided by viability of the paired control that was not incubated with T cells. […]
To challenge cells with cytokines, cells were incubated with Interferon-γ (IFNγ; Cell Signaling Technology 80385S), FasL (AdipoGen AG-40B-0130-3010), TRAIL (R&D Systems 375-TL-010), or TNF-α (AdipoGen AG-40B-0019-3010) for 24 h. […] Cell viability was measured using CellTiter-Glo (Promega G7571) and protein was harvested for Western blots. […] IFNγ in the cell culture media of the T cell cytotoxic assay was quantified using an ELISA kit (Thermo Fisher Scientific KHC4021). […]
On the technique in general: An ELISA detects its analyte on a solid surface through an enzyme-linked reagent.

The subject of data set [5] is CCLF_PANC_0014_T primary patient-derived pancreatic adenocarcinoma. The data set is described as follows: T cell cytotoxicity assay, primary patient-derived pancreatic adenocarcinoma against HER2 CAR T cells. Type of data set: cell-based, human. As to conditions: CCLF_PANC_0014_T treated with small molecule inhibitor. How it is done:
as §1

A word on the Ki: it is a measure of affinity in units of concentration, obtained from inhibition or displacement. For the compound `O=C1N[C@@H]2[C@@H](O)[C@@H](O)[C@H](O)[C@@H](CO)N2C1=O` [kifunensine], the Ki is 130 nM in data set [1] and 23 nM in data set [2]. Also, the “Cell survival against T cell cytotoxicity, SW1417” value in data set [3] was “reduced survival”. For the same compound, the “T cell IFNγ secretion” value in data set [4] is on record as “increased T cell IFNγ secretion”. Also, the “Cell survival against T cell cytotoxicity, primary patient-derived pancreatic adenocarcinoma model” value in data set [5] was “reduced survival”.
